Laboratory results: patent US10828317B2, “Method of treating bacterial infections” (priority 2016, dated 2020)
Read-outs that look alike come from different tables or passages of the source.

Columns and labels:
[1] = test system: S. flexneri APV00907; assay: MIC and antibiogram; type: cell-based; settings: Shigella flexneri, Table 22A
From the text: Inhibition of Heliobacter is important in view of increasing resistance and its association to gastric cancer.

[2] = test system: A. pittii or A. nosocomialis EN0180; assay: MIC; type: cell-based, Acinetobacter pittii or nosocomialis; settings: read-out: MIC
[3] = test system: E. coli EN0136; assay: MIC, ESBL (CTX-M-2); type: cell-based; settings: Escherichia coli, read-out: MIC
[4] = test system: E. aerogenes EN0461; assay: MIC; type: cell-based, Enterobacter aerogenes; settings: Klebsiella aerogenes, read-out: MIC
[5] = test system: K. pneumoniae EN0140; assay: MIC, AmpC (DHA-1); type: cell-based; settings: Klebsiella pneumoniae, read-out: MIC
[6] = test system: P. aeruginosa EN0459; assay: MIC; type: cell-based, Pseudomonas aeruginosa; settings: Pseudomonas aeruginosa, read-out: MIC
[7] = test system: S. aureus EN008; assay: MIC, Gram-positive control; type: cell-based, Staphylococcus aureus; settings: Staphylococcus aureus, read-out: MIC
[8] = test system: E. coli EN001; assay: MIC, WT (EN001 = EN0001, ATCC 25922); type: cell-based, Escherichia coli
[9] = test system: P. aeruginosa EN014; assay: MIC, WT; type: cell-based, Pseudomonas aeruginosa; settings: Pseudomonas aeruginosa, read-out: MIC
[10] = test system: E. coli EN003; assay: microbe, parasite or virus in culture; type: cell-based, Escherichia coli; settings: Escherichia coli, EN003, combination didanosine+trimethoprim+uridine, Table 10
[11] = test system: E. coli EN0134; assay: MIC, AmpC (CMY-4); type: cell-based; settings: Escherichia coli, read-out: MIC
[12] = test system: A. baumannii EN016; assay: MIC, WT; type: cell-based, Acinetobacter baumannii; settings: Acinetobacter baumannii, read-out: MIC
[13] = test system: S. marescens EN0454; assay: MIC; type: cell-based, Serratia marescens; settings: Serratia, read-out: MIC
[14] = test system: E. coli EN0137; assay: MIC, ESBL (CTX-M-15); type: cell-based; settings: Escherichia coli, read-out: MIC
[15] = test system: K. pneumoniae EN0244; assay: MIC, colistinR; type: cell-based; settings: Klebsiella pneumoniae, read-out: MIC
[16] = test system: S. epidermidis EN0456; assay: MIC; type: cell-based, Staphylococcus epidermidis; settings: Staphylococcus epidermidis, read-out: MIC
[17] = test system: P. mirabilis EN0457; assay: MIC; type: cell-based, Proteus mirabilis; settings: Proteus mirabilis, read-out: MIC
[18] = test system: E. coli EN0235; assay: microbe, parasite or virus in culture; type: cell-based; settings: Escherichia coli

Measured: MIC

COc1cc(Cc2cnc(N)nc2N)cc(OC)c1OC [Trimethoprim, trimethoprim]
0.125 µg/mL: [18]; EN0235, combination FdUrd+trimethoprim+uridine, Table 19
> 4 µg/mL: [2]; Combination 1 AZT+trimethoprim+uridine, Table 16 | [2]; Combination 2 AZT+trimethoprim+uridine+thymidine, Table 16 | [2]; combination AZT+trimethoprim+uridine, Table 6 | [6]; EN0459, Combination 1 AZT+trimethoprim+uridine, Table 16 | [6]; EN0459, Combination 2 AZT+trimethoprim+uridine+thymidine, Table 16 | [6]; EN0459, combination AZT+trimethoprim+uridine, Table 6 | [7]; EN008, Combination 2 AZT+trimethoprim+uridine+thymidine, Table 16 | [9]; EN014, Combination 1 AZT+trimethoprim+uridine, Table 16 | [9]; EN014, Combination 2 AZT+trimethoprim+uridine+thymidine, Table 16 | [9]; EN014, combination AZT+trimethoprim+uridine, Table 6 | [12]; EN016, Combination 1 AZT+trimethoprim+uridine, Table 16 | [12]; EN016, Combination 2 AZT+trimethoprim+uridine+thymidine, Table 16 | [12]; EN016, combination AZT+trimethoprim+uridine, Table 6 | [13]; EN0454, Combination 1 AZT+trimethoprim+uridine, Table 16 | [13]; EN0454, Combination 2 AZT+trimethoprim+uridine+thymidine, Table 16 | [17]; EN0457, Combination 2 AZT+trimethoprim+uridine+thymidine, Table 16
0.06 µg/mL: [16]; EN0456, combination AZT+trimethoprim+uridine, Table 6
2 µg/mL: [1]; APV00907, combination AZT+trimethoprim+uridine | [3]; EN0136, combination FdUrd+trimethoprim+uridine, Table 19 | [4]; EN0461, Combination 2 AZT+trimethoprim+uridine+thymidine, Table 16 | [4]; EN0461, combination FdUrd+trimethoprim+uridine, Table 8 | [16]; EN0456, Combination 2 AZT+trimethoprim+uridine+thymidine, Table 16 | [17]; EN0457, Combination 1 AZT+trimethoprim+uridine, Table 16 | [17]; EN0457, combination AZT+trimethoprim+uridine, Table 6 | [17]; EN0457, combination FdUrd+trimethoprim+uridine, Table 8
1 µg/mL: [4]; EN0461, combination didanosine+trimethoprim+uridine, Table 10 | [5]; EN0140, combination AZT+trimethoprim+uridine, Table 17B | [7]; EN008, Combination 1 AZT+trimethoprim+uridine, Table 16 | [7]; EN008, combination AZT+trimethoprim+uridine, Table 6 | [7]; EN008, combination didanosine+trimethoprim+uridine, Table 10 | [13]; EN0454, combination AZT+trimethoprim+uridine, Table 6
> 8 µg/mL: [1]; APV00907, combination FdUrd+trimethoprim+uridine | [2]; combination didanosine+trimethoprim+uridine, Table 10 | [3]; EN0136, combination didanosine+trimethoprim+uridine, Table 20 | [5]; EN0140, combination FdUrd+trimethoprim+uridine, Table 19 | [5]; EN0140, combination didanosine+trimethoprim+uridine, Table 20 | [6]; EN0459, combination FdUrd+trimethoprim+uridine, Table 8 | [6]; EN0459, combination didanosine+trimethoprim+uridine, Table 10 | [9]; EN014, combination FdUrd+trimethoprim+uridine, Table 8 | [9]; EN014, combination didanosine+trimethoprim+uridine, Table 10 | [11]; EN0134, combination FdUrd+trimethoprim+uridine, Table 19 | [11]; EN0134, combination didanosine+trimethoprim+uridine, Table 20 | [12]; EN016, combination didanosine+trimethoprim+uridine, Table 10 | [13]; EN0454, combination FdUrd+trimethoprim+uridine, Table 8 | [13]; EN0454, combination didanosine+trimethoprim+uridine, Table 10 | [14]; EN0137, combination FdUrd+trimethoprim+uridine, Table 19 | [14]; EN0137, combination didanosine+trimethoprim+uridine, Table 20 | [15]; EN0244, combination FdUrd+trimethoprim+uridine, Table 19 | [15]; EN0244, combination didanosine+trimethoprim+uridine, Table 20
4 µg/mL: [17]; EN0457, combination didanosine+trimethoprim+uridine, Table 10
8 µg/mL: [2]; combination FdUrd+trimethoprim+uridine, Table 8 | [12]; EN016, combination FdUrd+trimethoprim+uridine, Table 8
< 0.016 µg/mL: [7]; EN008, combination FdUrd+trimethoprim+uridine, Table 8 | [16]; EN0456, combination FdUrd+trimethoprim+uridine, Table 8
0.064 µg/mL: [8]; Escherichia coli, EN001, Combination 1 AZT+trimethoprim+uridine, Table 16, read-out: MIC | [10] | [16]; EN0456, Combination 1 AZT+trimethoprim+uridine, Table 16
0.5 µg/mL: [8]; combination FdUrd+trimethoprim+uridine, Table 19 | [8]; combination didanosine+trimethoprim+uridine, Table 20 | [15]; EN0244, combination AZT+trimethoprim+uridine, Table 17B
0.25 µg/mL: [4]; EN0461, Combination 1 AZT+trimethoprim+uridine, Table 16 | [4]; EN0461, combination AZT+trimethoprim+uridine, Table 6 | [8]; Escherichia coli, EN001, combination FdUrd+trimethoprim+uridine, Table 8, read-out: MIC | [8]; Escherichia coli, EN001, combination didanosine+trimethoprim+uridine, Table 10, read-out: MIC | [18]; EN0235, combination didanosine+trimethoprim+uridine, Table 20
